Patent US20160318856A1, “Substituted Urea eIF2alpha Kinase Activators” (THE BRIGHAM AND WOMEN'S HOSPITAL, INC., priority 2013, published 2016)
Where two headings read alike, the source gives them in different places.

Key:
ASPC-1 = assay: cell proliferation assay, ASPC-1; assay type: cell-based; details: Homo sapiens, ASPC1; SRB assay, Table 7; read-out: IC50 ASPC-1
Experimental: (§1) Cells were seeded in 96-well plates and maintained for 5 days in the presence of 0.5 to 20 μM of individual compound, and cell proliferation was measured by the sulforhodamine B (SRB) assay as described previously (see, for example, Palakurthi, S. S. et al. Cancer Research 2000, 60(11), 2919-2925). Briefly, at the end of a 5-day treatment, cells were fixed in 10% cold trichloroacetic acid. Cell number was estimated by measuring the remaining bound dye of sulforhodamine B after washing. The percentage of growth was calculated by using the equation: 100×[(T−T0)/(C−T0)], where T and C represent the absorbance in treated and control cultures at Day 5, and T0 at time zero, respectively. If T is less than T0, cell death has occurred and can be calculated from 100×[(T−T0)/T0].
(§2) The compounds shown in Table 7 were evaluated using for activation of HRI using the dual luciferase surrogate eIF2α phosphorylation assay (see, for example, Chen, T. et al. Nature Chem Biol 2011, 7, 610-616) and for inhibition of cell proliferation using the SRB assay (see, for example, Palakurthi, S. S. et al. Cancer Res 2000, 60, 2919-2925) as described above.

[1] = tested on: eIF2α phosphorylation (eIF2•GTP•Met-tRNAi ternary complex; HRI activation); assay: surrogate dual luciferase eIF2α phosphorylation (ternary complex) assay; assay type: cell-based, human; details: for maximal fold induction: Homo sapiens; for C3X: Calculated concentration of compound that will cause three-fold increase in the surrogate eIF2α phosphorylation assay: Table 7
Outline: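 Cell-based dual luciferase reporter: firefly luciferase behind the ATF-4 5′UTR (uORFs) and renilla luciferase behind a uORF-free 5′UTR, read with a dual glow kit. Activity given as firefly/renilla ratio normalised to DMSO wells set at 1, with a rising ratio reflecting reduced ternary complex (e.g., HRI activation).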

Panc-1 = assay: cell proliferation (SRB) assay, Panc-1; assay type: cell-based; details: Homo sapiens, Table 7
Experimental: as §1, §2

[2] = tested on: CRL-2813 human melanoma cancer cells; assay: cell proliferation (SRB) assay, CRL-2813; assay type: cell-based
Outline: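 Cells exposed 5 days to 0.5–20 μM compound, then TCA-fixed and stained with sulforhodamine B. Growth as 100×[(T−T0)/(C−T0)] from absorbance of treated, control and time-zero cultures; cell death as 100×[(T−T0)/T0] where T is below T0.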

NIH/3T3 fibroblast cells = assay: cell proliferation (SRB) assay, NIH/3T3; assay type: cell-based; details: for fold higher potency on cancer cells compared to non-transformed cells: CRL-2813 human melanoma vs NIH-3T3 fibroblast
Experimental: as §1
The experiments were conducted in triplicate, and each experiment was independently performed three times. IC50=effective dose of drug that inhibit cell proliferation by 50%. Data are shown as Mean±S.E.M.
Compounds I-6p, I-17, I-18 and I-20 were tested in NIH/3T3 fibroblast and CRL-2813 melanoma cancer cells in cell proliferation assay. The experiment was conducted in triplicate and each experiment was independently performed three times. Data are shown as Mean IC50±S.E.M.

[3] = tested on: CRL-2813 human melanoma cancer cells transfected with HRI-targeting or non-targeting siRNA; assay: cell proliferation (SRB) assay after HRI knockdown; assay type: cell-based; details: CRL-2813 cells, FIG. 10
Experimental: as §1
Cell proliferation is a meaningful read-out for determining the specificity of a compound as it captures both on-target and off-target effects of the compound under study. […] If these compounds specifically activate HRI and this activity is required for the inhibition of cell proliferation, then reducing the expression of HRI should blunt their effect on cell proliferation. For this purpose, expression of HRI was knocked down in CRL-2813 human melanoma (about 70% knockdown efficiency) and MCF-7 human breast cancer cells (about 90% knockdown efficiency). These two cell lines were chosen because the HRI knockdown efficiency is lower in CRL-2813 than in MCF-7 cells providing a sort of dose-response data that correlates knockdown efficiency with the resistance of cells to inhibition of cell proliferation. […] Referring to FIG. 5A, CRL-2813 human melanoma cancer cells, and (FIG. 5B) MCF-7 human breast cancer cells were transfected with HRI targeted or non-targeted siRNA, treated with the indicated concentrations of I-6p and cell proliferation was measured by SRB assay. Calculated IC50 for all four compounds tested in CRL-2813 human melanoma cancer cells and MCF-7 human breast cancer cells transfected with non-target siRNA control (NTC) or HRI is shown in FIG. 5C and FIG. 5D, respectively. The experiment was conducted in triplicate and each experiment was independently performed three times. Data are shown as Mean±S.E.M. *NTC=non-target siRNA control.
Referring to FIG. 8, CRL-2813 human melanoma cancer cells were transfected with HRI targeted or non-targeted siRNA, treated with the indicated concentrations of (A) I-14, (B) I-15, (C) III-4 and (D) III-5 and cell proliferation was measured by SRB assay. Calculated IC50 for all four compounds tested in CRL-2813 human melanoma cancer cells transfected with non-target siRNA control (NTC) or HRI is shown in (E). The experiment was conducted in triplicate and each experiment was independently performed three times. Data are shown as Mean±S.E.M. *NTC=non-target siRNA control, IC50=effective dose of drug that inhibit cell proliferation by 50%.
In general, if the affinity of compounds for their molecular target is increased this should result in higher specificity of the compounds in the cell proliferation assay. […] These five compounds, two with average and three with high potency, were tested in cell proliferation assay using CRL-2813 cells transfected with non-targeted siRNA or HRI-targeted siRNA as described above.

[4] = DMSO = 1, maximum tested concentration 20 μM, read-out: Emax: Maximum activity of compound expressed as fold over vehicle
[5] = Homo sapiens, CRL2813, SRB assay, Table 7, read-out: IC50 CRL-2813
[6] = surrogate eIF2α phosphorylation assay, Table 3, read-out: Emax (F/R)
[7] = Homo sapiens, CRL2813, CRL-2813, Table 8, Mean IC50±S.E.M., read-out: IC50 of compounds
[8] = Homo sapiens, CRL2813, cell proliferation assay, Table 3, cell line not named, values equal CRL-2813 values of Table 8, read-out: IC50
[9] = Mus musculus, NIH3T3, NIH/3T3, Table 8, Mean IC50±S.E.M., read-out: IC50 of compounds

Row | Structure (SMILES) | IC50 (ASPC-1) [nM] | maximal fold induction [1, 4] | C3X: Calculated concentration of compound that will cause three-fold increase in the surrogate eIF2α phosphorylation assay [1] [µM] | IC50 (Panc-1) [nM] | IC50 [2, 5] [nM] | further results
1 | NC(=O)c1cc(C(F)(F)F)ccc1O[C@H]1CC[C@H](NC(=O)Nc2cccc(C(F)(F)F)c2)CC1 | 4000 | 8 | 7 | 2700 | 1900 | 
2 | NC(=O)c1cc(O[C@H]2CC[C@H](NC(=O)Nc3cccc(C(F)(F)F)c3)CC2)ccc1C(F)(F)F | 3000 | 2.8 | >20 | 2500 | 2100 | 
3 | O=C(Nc1cccc(C(F)(F)F)c1)N[C@H]1CC[C@H](Oc2ccc(C(F)(F)F)cc2[N+](=O)[O-])CC1 | > 10000 | 13 | 5 | 4000 | 4000 | 
4 | O=C(Nc1cccc(OC(F)(F)F)c1)N[C@H]1CC[C@H](Oc2ccc(C(F)(F)F)cc2[N+](=O)[O-])CC1 | 800 | 12 | 0.5 | 1100 | 500 | 
5 | O=C(Nc1cccc(C(F)(F)F)c1)N[C@H]1CC[C@H](Oc2ccc(C(F)(F)F)cc2)CC1 | 900 | 25 | 0.4 | 900 | 500 | 
6 | O=C(Nc1ccc(OC(F)(F)F)cc1)NC1CCC(Oc2ccc(F)cc2)CC1 (stereo not shown) [Compound I-6p] |  |  |  |  |  | Emax (F/R) ([1]; ternary complex assay, F/R normalized to vehicle (DMSO = 1)): 15.32 F/R; IC50 ([2]; CRL-2813, Table 5, Mean±S.E.M., read-out: IC50): 2700 ± 100 nM; IC50 ([2]; CRL-2813, Table 8, Mean IC50±S.E.M., read-out: IC50 of compounds): 2700 ± 100 nM; IC50 ([2]; cell proliferation assay (SRB, 5 days), cell line not named in Table 1, values equal CRL-2813 values of Tables 5/8, read-out: IC50): 2700 ± 100 nM; fold higher potency on cancer cells compared to non-transformed cells (NIH/3T3 fibroblast cells): five-fold higher potency; IC50 (NIH/3T3 fibroblast cells; NIH/3T3, Table 5, Mean±S.E.M., read-out: IC50): 13600 ± 800 nM; IC50 (NIH/3T3 fibroblast cells; NIH/3T3, Table 8, Mean IC50±S.E.M., read-out: IC50 of compounds): 13600 ± 800 nM
7 | O=C(Nc1cccc(C(F)(F)F)c1)NC1CCC(Oc2ccc(C(F)(F)F)cc2)CC1 (stereo not shown) [Compound I-18, 1-(4-(4-(Trifluoromethyl)phenoxy)cyclohexyl)-3-(3-(trifluoromethyl)phenyl)urea] |  |  |  |  |  | fold higher IC50 values in cells transfected with HRI-targeting siRNA vs. non-targeting siRNA [3]: ~7.5 fold; maximal fold induction [1, 6]: 25.1; IC50 [2, 7]: 460 ± 100 nM; IC50 [2, 8]: 460 ± 100 nM; fold higher potency on cancer cells compared to non-transformed cells (NIH/3T3 fibroblast cells): highest discrimination between cancer and non-cancerous cells; IC50 (NIH/3T3 fibroblast cells; [9]): 3400 ± 100 nM
8 | O=C(Nc1cccc(C(F)(F)F)c1)NC1CCC(Oc2cccc(C(F)(F)F)c2)CC1 (stereo not shown) [Compound I-20, 1-(4-(3-(Trifluoromethyl)phenoxy)cyclohexyl)-3-(3-(trifluoromethyl)phenyl)urea] |  |  |  |  |  | fold higher IC50 values in cells transfected with HRI-targeting siRNA vs. non-targeting siRNA [3]: ~5 fold; maximal fold induction [1, 6]: 26; IC50 [2, 7]: 1300 ± 100 nM; IC50 [2, 8]: 1300 ± 100 nM; IC50 (NIH/3T3 fibroblast cells; [9]): 3300 ± 200 nM
